Biological target: Bacterial penicillin-binding protein (Bacteria) (UniProt P24228+P0AD68+P02918+P02919+P0AEB2+P0AD65+P08506)
Experiment: Inhibition of Acinetobacter baumannii PBP transglycosylase activity at 50 uM using NBD-labeled lipid 2 as substrate after 30 mins by N-acetylmuramidase enzyme coupled HPLC analysis relative to control
Assay type: protein assay

- inhibition: 70%
SMILES: CC(=O)N[C@H]1[C@H](O[C@H]2[C@H](O)[C@H](O)[C@@H](CP(=O)(O)OP(=O)(O)OC/C=C(\C)CC/C=C(/C)CC/C=C(\C)CCC=C(C)C)N[C@@H]2CO)O[C@H](CO)[C@@H](O)[C@@H]1O
